For data set [1], the system named is Mus musculus. Put plainly: Anti-nociceptive activity in ip dosed Swiss mouse assessed as inhibition of acetic acid-induced writhing dosed 40 mins before acetic acid injection and measured over 25 mins relative to control. The class given is functional. In general terms: In writhing tests, fewer writhes than in controls are read as antinociception.
The test system of data set [2] is Mus musculus. Put plainly: Anti-nociceptive activity in Swiss mouse assessed as reduction in time spent in licking injected paw during neurogenic phase at 100 umol/kg, ip dosed 40 mins before formalin injection. Format: functional, organism-based.
Data set [3] deals with Mus musculus. Put plainly: Anti-nociceptive activity in ip dosed Swiss mouse assessed as inhibition of acetic acid-induced writhing dosed 40 mins before acetic acid injection and measured over 25 mins. The class given is functional. As to conditions: read-out: ID50 (the source's name).
In data set [4] the test system is Mus musculus. Put plainly: Anti-nociceptive activity in Swiss mouse assessed as reduction in time spent in licking injected paw during inflammatory phase at 100 umol/kg, ip dosed 40 mins before formalin injection. Format: functional, organism-based.
Data set [5] deals with Mus musculus. Put plainly: Anti-inflammatory activity in Swiss mouse assessed as inhibition of zymosan-induced peritonitis by measuring reduction in leukocyte migration at 10 umol/kg, ip administered 30 min before the zymosan injection. The class given is functional.
Data set [6] has as its system Mus musculus. Put plainly: Anti-nociceptive activity in Swiss mouse assessed as reduction in paw licking response during inflammatory phase at 10 umol/kg, ip dosed 40 mins before formalin injection. Format: functional.
For data set [7], the system named is Rattus norvegicus. Put plainly: Anti-inflammatory activity in Wistar rat model complete Freund's adjuvant-induced arthritis assessed as reduction in paw edema at 5 umol/kg, ip dosed from day 14 to day 21 after immunization and measured on day 16. The class given is functional, organism-based.
Data set [8] concerns Mus musculus. Put plainly: Anti-nociceptive activity in Swiss mouse assessed as reduction in paw licking response during inflammatory phase at 100 umol/kg, ip dosed 40 mins before formalin injection. The class given is functional.
Data set [9] relates to Rattus norvegicus. Put plainly: Anti-inflammatory activity in Wistar rat model complete Freund's adjuvant-induced arthritis assessed as reduction in paw edema at 100 umol/kg, ip dosed from day 14 to day 21 after immunization and measured on until day of sacrifice. Format: functional, organism-based.
Data set [10] relates to Mus musculus. Put plainly: Anti-inflammatory activity in Swiss mouse assessed as inhibition of zymosan-induced peritonitis by measuring reduction in leukocyte migration at 100 umol/kg, ip administered 30 min before the zymosan injection. Format: functional.
For data set [11], the system named is Rattus norvegicus. Put plainly: Toxicity in Wistar rat model complete Freund's adjuvant-induced arthritis assessed as effect on spleen weight at 100 umol/kg, ip dosed from day 14 to day 21 after immunization. The class given is organism-based. As to conditions: in vivo.
In data set [12] the test system is Rattus norvegicus. Put plainly: Renal toxicity in Wistar rat model complete Freund's adjuvant-induced arthritis assessed as effect on urea levels at 100 umol/kg, ip dosed from day 14 to day 21 after immunization. Format: organism-based. As to conditions: in vivo.
In data set [13] the test system is Rattus norvegicus. Put plainly: Anti-inflammatory activity in Wistar rat model complete Freund's adjuvant-induced arthritis assessed as reduction in paw edema at 100 umol/kg, ip dosed from day 14 to day 21 after immunization and measured on day 17. The class given is functional, organism-based.
The subject of data set [14] is Rattus norvegicus. Put plainly: Renal toxicity in Wistar rat model complete Freund's adjuvant-induced arthritis assessed as effect on creatinine levels at 100 umol/kg, ip dosed from day 14 to day 21 after immunization. The class given is organism-based. As to conditions: in vivo.
Data set [15] concerns Rattus norvegicus. Put plainly: Hepatotoxicity in Wistar rat model complete Freund's adjuvant-induced arthritis assessed as effect on serum ALT level at 100 umol/kg, ip dosed from day 14 to day 21 after immunization. Format: toxicity, organism-based. As to conditions: in vivo.
For data set [16], the system named is Rattus norvegicus. Put plainly: Hepatotoxicity in Wistar rat model complete Freund's adjuvant-induced arthritis assessed as effect on serum AST level at 100 umol/kg, ip dosed from day 14 to day 21 after immunization. Format: toxicity, organism-based. Conditions: in vivo.

The source made the active and inactive calls. The calls are words filed in the database; no cut-off is given here.

A word on the Emax: it is the maximal effect, on the per cent scale that the assay sets. `NCCNCCNc1ccnc2cc(Cl)ccc12`: in the data set with Mus musculus [1], the Emax is 86.4%. The result in the data set with Mus musculus [2] and with Mus musculus [4] was Active. Further, the ED50 in the data set on Mus musculus [3] worked out at 39.4 µmol/kg.

`Cc1c(N(C)CS(=O)(=O)O)c(=O)n(-c2ccccc2)n1C` [METAMIZOLE]: the Emax in the data set with Mus musculus [1] stood at 74.8%. For the same compound, the ED50 with Mus musculus [3] amounted to 36.8 µmol/kg.

As a reminder, the inhibition in vivo is the relative decrease from the control value, in per cent. In the case of `COc1ccc2c(c1)c(CC(=O)O)c(C)n2C(=O)c1ccc(Cl)cc1` [INDOMETHACIN], the inhibition in vivo at 10 µmol/kg with Mus musculus [5] came to 75.8%; in the data set on Mus musculus [6] it was 50.8%.

Turning to `C[C@@H]1C[C@H]2[C@@H]3CCC4=CC(=O)C=C[C@]4(C)[C@@]3(F)[C@@H](O)C[C@]2(C)[C@@]1(O)C(=O)CO`, in the data set with Rattus norvegicus [7], the outcome was Active.

Regarding `NCCNCCNc1cc(C(F)(F)F)nc2ccccc12`, the Emax in the data set on Mus musculus [1] was 95.1%. In addition, the outcome with Mus musculus [2] and in the data set with Mus musculus [4] was Active. Further, in the data set on Mus musculus [3], the ED50 is 26.6 µmol/kg.

In the case of `NCCNCCNc1ccnc2cc(C(F)(F)F)ccc12`, the Emax in the data set with Mus musculus [1] is 96.7%. Besides, the figures for the inhibition in vivo at 100 µmol/kg with Mus musculus [8] and with Mus musculus [10] were 89.6% and 59.1%, respectively. In addition, the result with Rattus norvegicus [9], in the data set with Mus musculus [2], with Rattus norvegicus [13] and in the data set on Mus musculus [4] was Active. The Activity result with Rattus norvegicus [11], with Rattus norvegicus [12], in the data set on Rattus norvegicus [14], in the data set with Rattus norvegicus [15] and with Rattus norvegicus [16] was “Non-toxic” throughout. The ED50 in the data set on Mus musculus [3] is 15.3 µmol/kg.
